Assay results taken from PMC11233931, “Remodeling tumor‐associated macrophage for anti‐cancer effects by rational design of irreversible inhibition of mitogen‐activated protein kinase‐activated protein kinase 2” (MedComm, 2024).

Legend:
Assay in all cases: Eurofins kinase selectivity profile against 380 other human recombinant kinases (Table S2)
Format in all cases: biochemical
[1] = biological target: T1, 380 human recombinant protein kinases (Homo sapiens, UniProt P41743); conditions: PKCι(h), read-out: Inhibition rate
T1 construct: purchased Eurofins (Celle Lévescault)
T1 sequence (P41743 1-596): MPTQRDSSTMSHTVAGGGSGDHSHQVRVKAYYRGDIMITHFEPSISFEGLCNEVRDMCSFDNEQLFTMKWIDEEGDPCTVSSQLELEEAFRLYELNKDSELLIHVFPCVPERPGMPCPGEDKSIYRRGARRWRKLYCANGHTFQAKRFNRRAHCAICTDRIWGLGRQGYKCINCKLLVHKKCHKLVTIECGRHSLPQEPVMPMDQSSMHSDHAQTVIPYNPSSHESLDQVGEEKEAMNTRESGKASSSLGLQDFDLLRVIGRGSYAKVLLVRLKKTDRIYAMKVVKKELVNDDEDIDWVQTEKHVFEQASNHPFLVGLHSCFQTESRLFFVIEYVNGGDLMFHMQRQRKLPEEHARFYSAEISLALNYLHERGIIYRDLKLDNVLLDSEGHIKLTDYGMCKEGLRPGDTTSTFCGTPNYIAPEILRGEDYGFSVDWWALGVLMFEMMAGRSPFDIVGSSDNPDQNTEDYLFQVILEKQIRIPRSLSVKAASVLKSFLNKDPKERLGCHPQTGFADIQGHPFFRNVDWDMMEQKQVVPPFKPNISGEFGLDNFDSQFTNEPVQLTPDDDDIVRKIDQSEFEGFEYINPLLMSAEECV
How it was run: (§1)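 Profiling against 380 human recombinant kinases carried out by Eurofins at various compound concentrations.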

[2] = biological target: T2, 380 human recombinant protein kinases (Homo sapiens, UniProt Q8TDX7); conditions: NEK7(h), read-out: Inhibition rate
T2 construct: purchased Eurofins (Celle Lévescault)
How it was run: as §1

[3] = biological target: T3, 380 human recombinant protein kinases (Homo sapiens, UniProt P11802); conditions: CDK4/cyclinD3(h), read-out: Inhibition rate
T3 construct: purchased Eurofins (Celle Lévescault)
How it was run: as §1

[4] = biological target: T4, 380 human recombinant protein kinases (Homo sapiens, UniProt Q06187, R28H); conditions: BTK(R28H)(h), read-out: Inhibition rate
T4 construct: purchased Eurofins (Celle Lévescault)
How it was run: as §1

[5] = biological target: T5, 380 human recombinant protein kinases (Homo sapiens, UniProt P29322); conditions: EphA8(h), read-out: Inhibition rate
T5 construct: purchased Eurofins (Celle Lévescault)
T5 sequence (P29322 28-1005): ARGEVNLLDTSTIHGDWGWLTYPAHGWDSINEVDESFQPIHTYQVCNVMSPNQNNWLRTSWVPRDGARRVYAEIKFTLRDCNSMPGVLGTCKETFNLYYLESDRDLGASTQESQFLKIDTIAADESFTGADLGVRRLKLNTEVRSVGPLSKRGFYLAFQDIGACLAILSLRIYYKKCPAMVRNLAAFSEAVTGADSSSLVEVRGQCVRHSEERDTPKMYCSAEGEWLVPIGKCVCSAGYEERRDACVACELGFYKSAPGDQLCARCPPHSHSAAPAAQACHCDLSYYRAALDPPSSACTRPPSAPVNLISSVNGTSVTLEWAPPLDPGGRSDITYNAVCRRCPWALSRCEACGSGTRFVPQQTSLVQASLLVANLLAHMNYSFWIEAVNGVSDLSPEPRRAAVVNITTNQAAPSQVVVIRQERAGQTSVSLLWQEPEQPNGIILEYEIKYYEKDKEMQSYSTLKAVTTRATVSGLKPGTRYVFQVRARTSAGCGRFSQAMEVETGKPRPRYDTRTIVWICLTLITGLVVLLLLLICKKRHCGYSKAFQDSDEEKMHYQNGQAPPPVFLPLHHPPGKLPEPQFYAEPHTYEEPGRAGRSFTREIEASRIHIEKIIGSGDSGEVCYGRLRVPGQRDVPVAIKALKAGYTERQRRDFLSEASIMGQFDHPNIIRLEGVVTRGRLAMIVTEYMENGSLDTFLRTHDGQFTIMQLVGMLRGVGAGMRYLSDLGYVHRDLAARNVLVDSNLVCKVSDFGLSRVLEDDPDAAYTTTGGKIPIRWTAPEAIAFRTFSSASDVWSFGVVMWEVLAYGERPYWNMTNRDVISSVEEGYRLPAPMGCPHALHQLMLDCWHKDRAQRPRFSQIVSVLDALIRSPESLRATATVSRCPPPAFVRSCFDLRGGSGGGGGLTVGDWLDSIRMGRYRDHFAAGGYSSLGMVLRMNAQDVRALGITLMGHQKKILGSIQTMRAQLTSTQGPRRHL
How it was run: as §1

[6] = biological target: T6, 380 human recombinant protein kinases (Homo sapiens, UniProt P49760); conditions: CLK2(h), read-out: Inhibition rate
T6 construct: purchased Eurofins (Celle Lévescault)
How it was run: as §1

[7] = biological target: T7, 380 human recombinant protein kinases (Homo sapiens, UniProt O95819); conditions: MAP4K4(h), read-out: Inhibition rate
T7 construct: purchased Eurofins (Celle Lévescault)
How it was run: as §1

T2 sequence (Q8TDX7 whole entry): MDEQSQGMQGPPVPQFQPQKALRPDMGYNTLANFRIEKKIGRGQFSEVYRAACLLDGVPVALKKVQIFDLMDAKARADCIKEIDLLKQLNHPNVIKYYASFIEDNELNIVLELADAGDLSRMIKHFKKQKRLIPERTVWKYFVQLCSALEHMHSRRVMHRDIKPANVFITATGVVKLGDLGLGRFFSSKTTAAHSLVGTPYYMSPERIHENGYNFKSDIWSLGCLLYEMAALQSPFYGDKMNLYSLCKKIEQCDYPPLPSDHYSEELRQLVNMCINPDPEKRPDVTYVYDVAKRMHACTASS
T3 sequence (P11802 whole entry): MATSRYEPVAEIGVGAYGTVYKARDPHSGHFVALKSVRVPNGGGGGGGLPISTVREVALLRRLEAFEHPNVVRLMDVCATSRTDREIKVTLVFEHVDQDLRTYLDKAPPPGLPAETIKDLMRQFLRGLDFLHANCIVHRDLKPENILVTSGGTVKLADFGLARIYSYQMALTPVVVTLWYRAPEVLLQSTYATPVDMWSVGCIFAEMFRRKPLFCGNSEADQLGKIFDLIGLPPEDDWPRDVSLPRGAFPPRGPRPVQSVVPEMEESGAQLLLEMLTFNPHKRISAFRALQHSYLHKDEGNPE
T6 sequence (P49760 whole entry): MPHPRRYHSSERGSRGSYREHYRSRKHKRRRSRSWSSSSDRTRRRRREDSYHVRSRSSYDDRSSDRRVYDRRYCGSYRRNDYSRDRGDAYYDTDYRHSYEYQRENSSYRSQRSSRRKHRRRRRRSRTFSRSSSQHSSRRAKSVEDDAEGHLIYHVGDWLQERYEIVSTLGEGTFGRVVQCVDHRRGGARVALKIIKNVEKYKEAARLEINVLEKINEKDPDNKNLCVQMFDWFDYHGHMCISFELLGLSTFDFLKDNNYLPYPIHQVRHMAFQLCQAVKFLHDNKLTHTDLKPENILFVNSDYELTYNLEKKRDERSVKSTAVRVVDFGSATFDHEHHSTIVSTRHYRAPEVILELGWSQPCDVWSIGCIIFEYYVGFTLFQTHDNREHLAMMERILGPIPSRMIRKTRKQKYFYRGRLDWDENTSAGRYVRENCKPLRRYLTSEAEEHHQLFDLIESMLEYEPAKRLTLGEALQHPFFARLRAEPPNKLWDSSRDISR
T7 sequence (O95819 whole entry): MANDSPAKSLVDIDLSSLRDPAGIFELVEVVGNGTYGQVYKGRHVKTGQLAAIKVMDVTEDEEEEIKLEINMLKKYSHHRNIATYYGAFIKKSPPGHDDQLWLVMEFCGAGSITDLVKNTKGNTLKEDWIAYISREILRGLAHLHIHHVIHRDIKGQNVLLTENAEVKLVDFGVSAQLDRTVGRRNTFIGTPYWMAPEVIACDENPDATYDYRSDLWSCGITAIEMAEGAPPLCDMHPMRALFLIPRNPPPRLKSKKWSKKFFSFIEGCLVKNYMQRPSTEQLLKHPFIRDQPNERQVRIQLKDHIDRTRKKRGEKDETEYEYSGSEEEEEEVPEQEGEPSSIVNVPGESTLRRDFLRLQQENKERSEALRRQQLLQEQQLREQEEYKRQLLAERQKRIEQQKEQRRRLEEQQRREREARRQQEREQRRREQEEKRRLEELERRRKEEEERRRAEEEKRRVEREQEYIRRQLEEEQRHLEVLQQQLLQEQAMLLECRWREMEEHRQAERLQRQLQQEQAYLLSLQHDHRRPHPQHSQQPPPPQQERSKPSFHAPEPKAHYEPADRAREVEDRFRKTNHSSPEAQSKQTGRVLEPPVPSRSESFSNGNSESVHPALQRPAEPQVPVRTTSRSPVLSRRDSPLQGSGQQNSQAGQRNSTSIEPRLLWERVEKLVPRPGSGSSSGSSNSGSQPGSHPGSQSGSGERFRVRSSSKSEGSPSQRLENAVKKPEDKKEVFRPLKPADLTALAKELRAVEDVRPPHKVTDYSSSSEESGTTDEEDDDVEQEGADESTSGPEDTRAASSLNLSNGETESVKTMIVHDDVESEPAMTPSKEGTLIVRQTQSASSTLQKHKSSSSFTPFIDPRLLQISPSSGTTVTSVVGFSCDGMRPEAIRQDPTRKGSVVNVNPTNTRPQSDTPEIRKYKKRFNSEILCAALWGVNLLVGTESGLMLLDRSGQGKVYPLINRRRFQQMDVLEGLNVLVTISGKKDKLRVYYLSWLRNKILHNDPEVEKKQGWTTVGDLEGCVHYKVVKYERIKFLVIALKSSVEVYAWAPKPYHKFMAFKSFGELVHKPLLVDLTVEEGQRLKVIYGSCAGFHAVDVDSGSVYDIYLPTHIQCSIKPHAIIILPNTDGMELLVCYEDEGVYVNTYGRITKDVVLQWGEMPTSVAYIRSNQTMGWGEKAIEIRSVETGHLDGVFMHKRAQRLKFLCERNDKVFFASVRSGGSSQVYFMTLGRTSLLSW
T4 sequence (Q06187 whole entry R28H): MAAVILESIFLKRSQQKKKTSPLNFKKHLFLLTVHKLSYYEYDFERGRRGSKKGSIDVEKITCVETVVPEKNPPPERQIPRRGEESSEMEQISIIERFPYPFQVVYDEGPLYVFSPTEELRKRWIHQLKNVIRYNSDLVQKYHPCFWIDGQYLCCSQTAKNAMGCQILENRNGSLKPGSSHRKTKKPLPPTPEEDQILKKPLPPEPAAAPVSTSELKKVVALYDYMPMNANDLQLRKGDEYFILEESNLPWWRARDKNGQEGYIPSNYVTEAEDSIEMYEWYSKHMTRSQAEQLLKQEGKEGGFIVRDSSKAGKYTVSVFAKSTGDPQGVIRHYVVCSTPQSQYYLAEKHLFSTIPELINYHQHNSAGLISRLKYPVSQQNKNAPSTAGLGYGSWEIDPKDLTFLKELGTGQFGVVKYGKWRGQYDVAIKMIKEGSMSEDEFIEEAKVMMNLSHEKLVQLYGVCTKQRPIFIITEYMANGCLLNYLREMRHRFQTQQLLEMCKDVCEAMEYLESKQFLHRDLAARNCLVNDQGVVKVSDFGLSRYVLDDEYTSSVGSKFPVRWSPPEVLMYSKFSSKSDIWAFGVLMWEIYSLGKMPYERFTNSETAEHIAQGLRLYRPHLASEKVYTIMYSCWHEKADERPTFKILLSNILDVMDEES

C=CC(=O)Nc1cc(-c2cc(-c3cc4c([nH]3)CCNC4=O)ccn2)ccc1OC(F)(F)F [compound 11]
inhibition at 0.01 µM ([1]; 10 nM): 0% | inhibition at 0.1 µM ([1]; 100 nM): 5% | inhibition at 1 µM ([1]; 1000 nM): 8% | inhibition at 0.01 µM ([2]; 10 nM): -5% | inhibition at 0.1 µM ([2]; 100 nM): -2% | inhibition at 1 µM ([2]; 1000 nM): 3% | inhibition at 0.01 µM ([3]; 10 nM): 3% | inhibition at 0.1 µM ([3]; 100 nM): 0% | inhibition at 1 µM ([3]; 1000 nM): 2% | inhibition at 0.01 µM ([4]; 10 nM): -27% | inhibition at 0.1 µM ([4]; 100 nM): 6% | inhibition at 1 µM ([4]; 1000 nM): 1% | inhibition at 0.01 µM ([5]; 10 nM): 1% | inhibition at 0.1 µM ([5]; 100 nM): 2% | inhibition at 1 µM ([5]; 1000 nM): 1% | inhibition at 0.01 µM ([6]; 10 nM): 1% | inhibition at 0.1 µM ([6]; 100 nM): 10% | inhibition at 1 µM ([6]; 1000 nM): 42% | inhibition at 0.01 µM ([7]; 10 nM): -11% | inhibition at 0.1 µM ([7]; 100 nM): -1% | inhibition at 1 µM ([7]; 1000 nM): 33%
